# From ChEMBL document CHEMBL1131216, “Anhydrolide macrolides. 2. Synthesis and antibacterial activity of 2,3-anhydro-6-O-methyl 11,12-carbazate erythromycin A analogues” (1998)
# Legend:
# Format in all cases: functional
# [1] = system: Staphylococcus aureus; experiment: In vitro antibacterial activity of A5177 strain of Gram positive bacteria Staphylococcus aureus
# [2] = system: Streptococcus pyogenes; experiment: In vitro antibacterial activity of PIU2584 strain of Gram positive bacteria Streptococcus pyogenes
# [3] = system: Streptococcus pyogenes; experiment: In vitro antibacterial activity of 930 strain of Gram positive bacteria Streptococcus pyogenes
# [4] = system: Streptococcus pneumoniae; experiment: In vitro antibacterial activity of 5649 strain of Gram positive bacteria Streptococcus pneumoniae
# [5] = system: Staphylococcus aureus; experiment: In vitro antibacterial activity of 6538P strain of Gram positive bacteria Staphylococcus aureus
# [6] = system: Streptococcus pneumoniae; experiment: In vitro antibacterial activity of ATCC 6303 strain of Gram positive bacteria Streptococcus pneumoniae
# [7] = system: Staphylococcus aureus; experiment: In vitro antibacterial activity of A-5278 strain of Gram positive bacteria Staphylococcus aureus
# [8] = system: Haemophilus influenzae; experiment: In vitro antibacterial activity of DILL strain of Gram negative bacteria Haemophilus influenzae
# [9] = system: Streptococcus pyogenes; experiment: In vitro antibacterial activity of EES61 strain of Gram positive bacteria Streptococcus pyogenes
# [10] = system: Streptococcus pneumoniae; experiment: In vitro antibacterial activity of 5979 strain of Gram positive bacteria Streptococcus pneumoniae
MIC [1] [mg/L],MIC [2] [mg/L],MIC [3] [mg/L],MIC [4] [mg/L],MIC [5] [mg/L],MIC [6] [mg/L],MIC [7] [mg/L],MIC [8] [mg/L],MIC [9] [mg/L],MIC [10] [mg/L],SMILES
3.1,4,128,2,3.1,0.25,> 100,32,0.25,128,CC[C@H]1OC(=O)/C(C)=C/[C@H](C)[C@@H](O[C@@H]2O[C@H](C)C[C@H](N(C)C)[C@H]2O)[C@@](C)(OC)C[C@@H](C)C(=O)[C@H](C)[C@H]2N(NCc3cc(O)ccc3O)C(=O)O[C@]12C
0.1,0.5,> 64,1,0.2,0.004,> 100,2,0.004,> 64,CC[C@H]1OC(=O)/C(C)=C/[C@H](C)[C@@H](O[C@@H]2O[C@H](C)C[C@H](N(C)C)[C@H]2O)[C@@](C)(OC)C[C@@H](C)C(=O)[C@H](C)[C@H]2N(NCCCc3ccnc4ccccc34)C(=O)O[C@]12C
0.1,1,32,2,0.1,0.125,50,16,0.06,64,CC[C@H]1OC(=O)/C(C)=C/[C@H](C)[C@@H](O[C@@H]2O[C@H](C)C[C@H](N(C)C)[C@H]2O)[C@@](C)(OC)C[C@@H](C)C(=O)[C@H](C)[C@H]2N(NCCCc3ccccc3)C(=O)O[C@]12C
0.2,1,> 64,1,0.39,0.06,> 100,8,0.03,> 64,CC[C@H]1OC(=O)/C(C)=C/[C@H](C)[C@@H](O[C@@H]2O[C@H](C)C[C@H](N(C)C)[C@H]2O)[C@@](C)(OC)C[C@@H](C)C(=O)[C@H](C)[C@H]2N(NCc3ccccc3)C(=O)O[C@]12C
0.2,1,128,0.5,0.2,0.004,> 100,8,0.004,> 128,CC[C@H]1OC(=O)/C(C)=C/[C@H](C)[C@@H](O[C@@H]2O[C@H](C)C[C@H](N(C)C)[C@H]2O)[C@@](C)(OC)C[C@@H](C)C(=O)[C@H](C)[C@H]2N(NCCCn3nc4ccccc4n3)C(=O)O[C@]12C
0.39,0.5,> 64,1,0.39,0.125,> 100,8,0.06,> 64,CC[C@H]1OC(=O)/C(C)=C/[C@H](C)[C@@H](O[C@@H]2O[C@H](C)C[C@H](N(C)C)[C@H]2O)[C@@](C)(OC)C[C@@H](C)C(=O)[C@H](C)[C@H]2N(NCc3c[nH]c4ccccc34)C(=O)O[C@]12C
0.39,2,> 128,2,0.39,0.06,> 100,8,0.06,> 128,CC[C@H]1OC(=O)/C(C)=C/[C@H](C)[C@@H](O[C@@H]2O[C@H](C)C[C@H](N(C)C)[C@H]2O)[C@@](C)(OC)C[C@@H](C)C(=O)[C@H](C)[C@H]2N(NCCCc3ccc(NC(C)=O)cc3)C(=O)O[C@]12C
0.1,1,64,1,0.1,0.03,> 100,8,0.03,64,CC[C@H]1OC(=O)/C(C)=C/[C@H](C)[C@@H](O[C@@H]2O[C@H](C)C[C@H](N(C)C)[C@H]2O)[C@@](C)(OC)C[C@@H](C)C(=O)[C@H](C)[C@H]2N(NCCCc3ccc([N+](=O)[O-])cc3)C(=O)O[C@]12C
0.1,1,> 128,1,0.2,0.03,> 100,4,0.03,> 128,CC[C@H]1OC(=O)/C(C)=C/[C@H](C)[C@@H](O[C@@H]2O[C@H](C)C[C@H](N(C)C)[C@H]2O)[C@@](C)(OC)C[C@@H](C)C(=O)[C@H](C)[C@H]2N(NCCCn3nnc4ccccc43)C(=O)O[C@]12C
50,32,> 128,16,50,8,> 100,> 128,8,> 128,CC[C@H]1OC(=O)/C(C)=C/[C@H](C)[C@@H](O[C@@H]2O[C@H](C)C[C@H](N(C)C)[C@H]2O)[C@@](C)(OC)C[C@@H](C)C(=O)[C@@H](C)[C@H]2N(N)C(=O)O[C@]12C
